Experimental data as given in patent US20220274967A1, “BCAT MODULATION” (Icagen, LLC, priority 2019, published 2022).
Where two headings read alike, the source gives them in different places.

Tests used:
[1] = biological target: T1, BCAT1 (Homo sapiens, UniProt P54687); assay: BCAT1 enzyme inhibition (human), Glutamate Glo luminescence; format: biochemical
T1 sequence (P54687 1-386): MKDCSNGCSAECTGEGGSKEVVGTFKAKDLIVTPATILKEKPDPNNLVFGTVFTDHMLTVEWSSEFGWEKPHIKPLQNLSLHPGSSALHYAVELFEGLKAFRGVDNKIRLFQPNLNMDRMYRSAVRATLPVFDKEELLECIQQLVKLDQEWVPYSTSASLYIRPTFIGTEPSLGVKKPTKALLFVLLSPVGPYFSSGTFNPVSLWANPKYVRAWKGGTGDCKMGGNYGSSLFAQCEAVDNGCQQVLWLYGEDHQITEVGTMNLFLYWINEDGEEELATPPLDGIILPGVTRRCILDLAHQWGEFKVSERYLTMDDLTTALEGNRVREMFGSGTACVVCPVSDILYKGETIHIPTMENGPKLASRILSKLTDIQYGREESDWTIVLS
How it was run: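 BCAT1 enzyme (0.06 ug/ml final) was preincubated with compound (3-0.0001 μM, 0.3% DMSO) for 10 or 60 min at room temperature in 50 mM Tris/0.05% TWEEN-20. The reaction then ran 10 min with 300 μM L-leucine and 250 μM alpha-ketoglutaric acid, was acid-quenched, and glutamate was read by luminescence. IC50 came from a 4-parameter fit, normalized to 10 μM VS558CSA inhibition.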

[2] = 3-HIB assay in vitro, direct MS assay of conditioned media; format: cell-based, human; conditions: GM00371 cells, read-out: 3HIB INHIBITION IC50 (μM) MEAN GM00371 cells Direct MS Assay
Procedure: Cell Plating: Cells (Coriell Institute GM00371 cells) were plated (96-well clear bottom sterile plate; Greiner 655098) at 10,000 cells/0.1 mL in Eagle's minimum essential medium (EMEM)/15% FBS (Gibco 16000-044) with a Combi dispenser in a cell culture hood and incubated at 37° C. and 5% CO2 overnight.
Compound Dilution: Compound were prepared as 33.3× intermediate dilution in DMSO in 96 well round polystyrene plates. For 30 μM final maximum start with 30 μL of 10 mM in DMSO. 10-12 1:3 serial dilutions were prepared from left to right (20 μL+40 μL DMSO). A 10× secondary dilution was prepare in EMEM by taking 7.5 μL 33.3× and transfer to replicate 96 well round polystyrene plates and then adding 242.5 μL EMEM A 1× final dilution in EMEM was prepared by taking 50 μL 10× dilution and transferring to replicate 96 well polypropylene assay block (Costar 3956) and adding 450 μL EMEM A control was prepared for maximal compound inhibition by taking 20 μL 10 mM Reference Compound A and adding 40 μL DMSO for a concentration of 3.3 mM To 7.5 μL of the 3.3 mM Reference Compound A solution and added 242.5 μL EMEM to make a 100 μM solution. The subsequent Reference Compound A solution was diluted with EMEM to achieve a final concentration of 10 μM. The structure of Reference Compound A is:
A control was prepared for maximal compound toxicity by taking 7.5 μL Reference Compound B and 242.5 μL EMEM to make […]. 50 μL of that 100 μM Reference Compound B solution was combined with 450 μL EMEM to achieve a concentration of 30 μM. The structure of Reference Compound B is
A DMSO Control was prepared by dilution 7.5 μL with 242.5 μL EMEM and taking 50 μL of the subsequent solution and diluting with 450 μL EMEM.
Compound Treatment: Media was aspirated from the cells and 100 μL of D-PBS (ThermoFisher 14190144) was added and then removed. 100 μL of diluted compound was added to the cells in the place and the cells were incubated at 37° C. and 5% CO2 for 24 hours.
Collection of Conditioned Media: For 3HIB MS detection: 20 μL conditioned media was removed from the cells and was transferred to a labeled replicate 96 well polypropylene assay plate (VWR 62408-946). And the plate was heat sealed and stored at −80° C.
3HIB Derivatization (Generalized SOP): The media collected for 3HIB MS detection was derivatized under the following conditions. Buffer: 0.1M 1-Ethyl-3-(3-dimethylaminopropyl)carbodiimide (EDC) dissolved in 0.1 M 2-(N-morpholino)ethanesulfonic acid ([…]) adjusted to pH 5.6. Buffer prep: weighed 10.6 g MES (Sigma #M-5287) per 500 mL HPLC grade H2O. Stored at 4° C.; 0.1M EDC: Weighed 1.971 g EDC (#E-1769) per 100 mL MES. Adjusted pH to 5.6 with ˜40 drops of 1N NaOH and stored at 4° C. Buffer has a short half-life should be used within two weeks.
Derivatization: To 20 μL sample was added 60 μL 5 uM 3HIB-4C13 internal standard followed by 20 μL EDC in MES and 100 μL MES. The plate was sealed and incubate at 50° C. for […] then centrifuged at 4000 rpm at 6° C. for 10 minutes. LC-MS analysis was then conducted and the data was processed using standard methods.

[3] = tested on: GM00371 cells; assay: Viability assay (Cell titer glo) in the 3-HIB assay; format: cell-based, human; conditions: read-out: 3HIB INHIBITION IC50 (μM) MEAN GM00371 cells Viablility Assay
How it was run: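 GM00371 cells (10,000/well, EMEM/15% FBS) were exposed for 24 h at 37 °C to compounds in 1:3 serial dilution from 30 μM top concentration in EMEM. Reference Compound B at 30 μM served as maximal-toxicity control. Viability read as CellTiter-Glo luminescence.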

[4] = biological target: T2, BCAT2 (Homo sapiens, UniProt O15382); assay: BCAT2 enzyme inhibition (human); format: biochemical
T2 sequence (O15382 28-392): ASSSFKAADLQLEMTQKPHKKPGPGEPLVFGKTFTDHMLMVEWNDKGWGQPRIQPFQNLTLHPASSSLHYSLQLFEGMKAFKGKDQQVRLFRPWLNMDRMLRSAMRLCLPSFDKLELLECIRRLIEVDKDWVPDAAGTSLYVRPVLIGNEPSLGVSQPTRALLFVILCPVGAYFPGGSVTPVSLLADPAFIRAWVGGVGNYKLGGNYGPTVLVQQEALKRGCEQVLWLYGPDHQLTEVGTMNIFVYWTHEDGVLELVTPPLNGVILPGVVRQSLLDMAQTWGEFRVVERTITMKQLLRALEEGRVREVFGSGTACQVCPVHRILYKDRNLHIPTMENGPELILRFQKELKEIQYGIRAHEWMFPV
How it was run: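 Cell-free coupled fluorescent assay: human BCATm converts branched-chain amino acids and α-ketoglutarate to L-glutamate, which L-glutamate oxidase and HRP link to resorufin formation from Amplex Red; activity taken as reduced glutamate signal.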

IC50 [4] | IC50 ([2]; Homo sapiens, 24 h) | SMILES | IC50 [1] | IC50 ([2]; 24 hours) | IC50 ([3]; Homo sapiens, 24 hours) | IC50 ([3]; 24 hours) | IC50 ([3]; Homo sapiens, 24 h)
< 100 nM | < 0.1 µM | CNC(=O)c1ccc2c(c1)nc(-c1cc(F)ccc1F)n2[C@H]1CCC[C@@H](NC(=O)c2ccc(Br)s2)C1 [Compound 175] |  |  |  |  | 0.1 to 0.5 µM
< 100 nM | 0.1 to 0.5 µM | CNC(=O)c1ccc2c(c1)nc(-c1ccc(F)cc1F)n2[C@H]1CCC[C@@H](NC(=O)c2ccc(Br)s2)C1 [Compound 176] |  |  |  |  | 0.1 to 0.5 µM
< 100 nM | < 0.1 µM | CNC(=O)c1ccc2c(c1)nc(-c1c(O)cccc1F)n2[C@H]1CCC[C@@H](NC(=O)c2ccc(Cl)s2)C1 [Compound 177] |  |  |  |  | 0.1 to 0.5 µM
< 100 nM | ≥ 1 µM | CNC(=O)c1ccc2c(c1)nc(-c1ncccc1C#N)n2[C@H]1CCC[C@@H](NC(=O)c2ccc(C#N)s2)C1 [Compound 178] |  |  |  |  | ≥ 1 µM
< 100 nM | ≥ 1 µM | CNC(=O)c1ccc2c(c1)nc(-c1cccs1)n2[C@H]1CCC[C@@H](NC(=O)c2ccc(C#N)s2)C1 [Compound 181] |  |  |  |  | ≥ 1 µM
< 100 nM | 0.5 to 1 µM | CNC(=O)c1ccc2c(c1)nc(-c1ncccc1C#N)n2[C@H]1CCC[C@@H](NC(=O)c2ccc(Br)s2)C1 [Compound 185] |  |  |  |  | 0.5 to 1 µM
< 100 nM | 0.5 to 1 µM | CNC(=O)c1ccc2c(c1)nc(-c1ncccc1C#N)n2[C@H]1CCC[C@@H](NC(=O)c2ccc(Cl)s2)C1 [Compound 192] |  |  |  |  | 0.5 to 1 µM
< 100 nM | < 0.1 µM | CNC(=O)c1ccc2c(c1)nc(-c1ncccc1F)n2[C@H]1CCC[C@@H](NC(=O)c2ccc(Cl)s2)C1 [Compound 197] | < 100 nM |  |  |  | 
< 100 nM | < 0.1 µM | CNC(=O)c1ccc2c(c1)nc(-c1ncccc1F)n2[C@H]1CCC[C@@H](NC(=O)c2ccc(Br)s2)C1 [Compound 199] | < 100 nM |  |  |  | 
< 100 nM | 0.1 to 0.5 µM | O=C(N[C@@H]1CCC[C@H](n2c(-c3ccccn3)nc3cc(Cl)ncc32)C1)c1ccc(Br)s1 [Compound 296] |  |  |  |  | 0.5 to 1 µM

More lines, now with the values behind:

SMILES | IC50 [4] | IC50 ([2]; Homo sapiens, 24 h) | IC50 [1] | IC50 ([2]; 24 hours) | IC50 ([3]; Homo sapiens, 24 hours) | IC50 ([3]; 24 hours) | IC50 ([3]; Homo sapiens, 24 h)
CNC(=O)c1ccc2c(c1)nc(-c1ccccn1)n2[C@@H]1CCC[C@H](NC(=O)c2ccc(Br)s2)C1 [Compound 102] |  |  | ≥ 1000 nM | 0.5 to 1 µM | 0.5 to 1 µM |  | 
CNC(=O)c1ccc2c(c1)nc(-c1ccccn1)n2[C@@H]1CCC[C@H](NC(=O)c2ccc(Br)s2)C1 [Compound 105] |  |  | 500 to 1000 nM | 0.1 to 0.5 µM |  | 0.5 to 1 µM | 
CNC(=O)c1ccc2c(c1)nc(-c1ccccn1)n2[C@H]1CCC[C@@H](NC(=O)c2ccc(Cl)s2)C1 [Compound 141] | < 100 nM | ≥ 1 µM |  |  |  |  | ≥ 1 µM
CNC(=O)c1ccc2c(c1)nc(-c1ncccc1O)n2[C@H]1CCC[C@@H](NC(=O)c2ccc(Br)s2)C1 [Compound 152] | < 100 nM | 0.1 to 0.5 µM |  |  |  |  | 0.1 to 0.5 µM
CNC(=O)c1ccc2c(c1)nc(-c1c(O)cccc1F)n2[C@H]1CCC[C@@H](NC(=O)c2ccc(C#N)s2)C1 [Compound 172] | < 100 nM | 0.1 to 0.5 µM |  |  |  |  | 0.1 to 0.5 µM
CNC(=O)c1ccc2c(c1)nc(-c1c(F)cccc1F)n2[C@H]1CCC[C@@H](NC(=O)c2ccc(C#N)s2)C1 [Compound 174] | < 100 nM | 0.1 to 0.5 µM |  |  |  |  | 0.5 to 1 µM
CNC(=O)c1ccc2c(c1)nc(-c1cccs1)n2[C@H]1CCC[C@@H](NC(=O)c2ccc(Br)s2)C1 [Compound 193] |  | 0.1 to 0.5 µM | 500 to 1000 nM |  | 0.5 to 1 µM |  | 
